Data on three compounds can be found in patent publication US6933108B2 (priority 1999, dated 2005).

Entries after “also recorded” stand apart in the source; their conditions may differ.

The test system of one assay is EBO-Z pseudotype virus. The class given is cell-based, Ebola-Zaire virus.
Another assay deals with MBG pseudotype virus. Type of assay: cell-based, Marburg virus.
The next assay concerns Ampho luciferase virus. The class given is cell-based, amphotropic murine leukemia virus.
In another assay the target is FR-α (Homo sapiens, UniProt P15328). The following applies: cited from earlier work.
Chain of FR-α (P15328 25-234): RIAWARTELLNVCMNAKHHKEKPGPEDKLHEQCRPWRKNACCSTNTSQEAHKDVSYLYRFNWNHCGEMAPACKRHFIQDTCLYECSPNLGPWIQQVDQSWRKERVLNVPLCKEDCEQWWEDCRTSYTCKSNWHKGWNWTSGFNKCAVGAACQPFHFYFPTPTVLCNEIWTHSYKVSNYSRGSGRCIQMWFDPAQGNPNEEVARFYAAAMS
The subject of assay [1] is Filoviruses, including the Marburg and Ebola viruses. The following applies: cited from earlier work.

As for `Nc1nc2ncc(CNc3ccc(C(=O)N[C@@H](CCC(=O)O)C(=O)O)cc3)nc2c(=O)[nH]1` [folic acid], the “entry by EBO-Z virus” value in the assay on EBO-Z pseudotype virus is listed as “inhibited significantly; also recorded: specifically inhibited”. In addition, in the assay on MBG pseudotype virus, the “entry by MBG luciferase virus” value was “specifically inhibited” and the “reduction of MBG virus entry” value was approximately 80%. In the assay with Ampho luciferase virus, the “entry by Ampho luciferase pseudotype” value was “very slight alteration; also recorded: did not significantly decrease; also recorded: not Ampho”.
`CN1c2c(nc(N)[nH]c2=O)NCC1CNc1ccc(C(=O)N[C@@H](CCC(=O)O)C(=O)O)cc1` (stereo partly drawn) [5-methyltetrahydrofolic acid]: the “binding affinity to FR-α” value at FR-α is listed as “high affinity”.
As for `NC(=O)c1ncn([C@@H]2O[C@H](CO)[C@@H](O)[C@H]2O)n1` [ribavirin], in assay [1], the “in vitro effect against filoviruses” value was “no in vitro effect”.
